Here are results for two molecules from patent publication US20250034161A1, “SPIROCYCLIC COMPOUND AS KRAS-G12C INHIBITOR” (Shanghai Euregen Biopharma Co., Ltd., priority 2020, published 2025).

One may read the IC50 as the point on the concentration scale where inhibition reaches its midpoint.

Molecules are shown by their SMILES.

One assay concerns the target hERG potassium channel (Homo sapiens, UniProt Q12809). In words: hERG experiment, manual membrane clamp on HEK293 cells. On the technique in general: hERG is a cardiac potassium channel; its block is linked to QT prolongation.
The target of the next assay is T1, CYP1A2 (Homo sapiens, UniProt P05177).
T1 sequence (P05177 1-516): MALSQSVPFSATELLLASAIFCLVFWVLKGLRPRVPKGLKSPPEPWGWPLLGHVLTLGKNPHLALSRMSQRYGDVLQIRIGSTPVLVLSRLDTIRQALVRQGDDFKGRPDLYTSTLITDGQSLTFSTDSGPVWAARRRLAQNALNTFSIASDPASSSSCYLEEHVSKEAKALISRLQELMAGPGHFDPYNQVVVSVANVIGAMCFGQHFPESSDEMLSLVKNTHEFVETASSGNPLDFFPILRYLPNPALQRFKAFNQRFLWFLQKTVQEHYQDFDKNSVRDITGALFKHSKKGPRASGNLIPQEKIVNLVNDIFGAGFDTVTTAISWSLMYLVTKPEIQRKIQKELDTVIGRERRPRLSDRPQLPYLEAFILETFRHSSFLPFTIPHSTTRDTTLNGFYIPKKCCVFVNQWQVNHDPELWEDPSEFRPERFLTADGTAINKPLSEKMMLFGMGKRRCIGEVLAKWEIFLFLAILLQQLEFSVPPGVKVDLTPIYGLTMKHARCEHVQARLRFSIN
In words: CYP inhibition test, human liver microsomes, CYP1A2. As to the method: (§1) • 1. Test purpose: to evaluate the inhibitory ability of some of the example compounds of the present invention against CYP1A2, 2B6, 2C8, 2C9, 2C19, 2D6 and 3A4 via human liver microsomes. • 2. […] Test method:
(§2) • 1. K/Mg buffer: the components were 0.1 mol/L potassium phosphate and 5 mmol/L magnesium chloride with pH 7.4±0.1, preheated. • 2. Solution of the test compound: the test compound was dissolved in dimethyl sulfoxide to prepare a stock solution of 10 mmol/L. 8 μL of 10 mmol/L stock solution was transferred to a 96-well plate containing 12 μL of acetonitrile as the highest concentration point, at 3-fold dilution, for 8 concentrations. • 3. NADPH solution: 66.7 mg of NADPH was dissolved in 10 mL of 0.1 mol/L K/Mg buffer to obtain 8 mmol/L NADPH solution with pH 7.4. • 4. Human liver microsomal stock solution: human liver microsomes were dissolved in 0.1 mol/L K/Mg buffer to obtain 20 mg/mL stock solution. • 5. Human liver microsomal working solution: 10 μL of 20 mg/mL human liver microsomal stock solution was taken and added into 990 μL of 0.1 mol/L K/Mg buffer to prepare 0.2 mg/mL human liver microsomal solution. • 6. […]

The next assay addresses T2, CYP 2C8 (Homo sapiens, UniProt P10632).
T2 sequence (P10632 1-490): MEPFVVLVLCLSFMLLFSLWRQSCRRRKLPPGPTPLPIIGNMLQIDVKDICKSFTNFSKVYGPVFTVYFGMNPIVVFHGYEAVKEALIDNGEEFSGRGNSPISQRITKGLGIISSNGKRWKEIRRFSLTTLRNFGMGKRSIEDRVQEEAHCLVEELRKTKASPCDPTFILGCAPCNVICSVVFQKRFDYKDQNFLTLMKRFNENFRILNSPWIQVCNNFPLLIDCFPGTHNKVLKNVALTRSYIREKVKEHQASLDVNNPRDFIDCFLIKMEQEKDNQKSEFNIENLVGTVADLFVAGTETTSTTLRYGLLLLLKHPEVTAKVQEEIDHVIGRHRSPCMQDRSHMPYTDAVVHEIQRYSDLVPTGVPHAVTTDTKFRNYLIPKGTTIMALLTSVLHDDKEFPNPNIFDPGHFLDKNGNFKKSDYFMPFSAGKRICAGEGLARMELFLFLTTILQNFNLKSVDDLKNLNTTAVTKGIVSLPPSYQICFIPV
As to the kind of experiment: CYP inhibition test, human liver microsomes, CYP2C8. As to the method: as §1, §2
A general note: Liver microsomes are vesicles of endoplasmic reticulum, rich in cytochrome P450 enzymes.

For a further assay, the target named is CYP 2D6 (Homo sapiens, UniProt P10635). As to the kind of experiment: CYP inhibition test, human liver microsomes, CYP2D6. On the procedure: as §1
Sequence of CYP 2D6 (P10635 whole entry): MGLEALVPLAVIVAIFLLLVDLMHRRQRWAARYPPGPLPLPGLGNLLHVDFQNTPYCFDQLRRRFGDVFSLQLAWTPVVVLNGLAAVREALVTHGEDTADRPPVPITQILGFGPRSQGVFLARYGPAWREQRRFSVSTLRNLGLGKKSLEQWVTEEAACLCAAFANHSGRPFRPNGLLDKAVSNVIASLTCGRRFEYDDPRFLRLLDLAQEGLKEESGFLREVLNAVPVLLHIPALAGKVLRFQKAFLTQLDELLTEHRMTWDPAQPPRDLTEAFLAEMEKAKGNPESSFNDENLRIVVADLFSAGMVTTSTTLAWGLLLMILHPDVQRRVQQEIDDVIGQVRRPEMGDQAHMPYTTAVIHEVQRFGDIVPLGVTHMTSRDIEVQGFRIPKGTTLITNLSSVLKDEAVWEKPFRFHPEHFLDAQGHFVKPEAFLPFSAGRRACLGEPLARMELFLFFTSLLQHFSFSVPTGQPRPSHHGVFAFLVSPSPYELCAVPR
• 1. K/Mg buffer: the components were 0.1 mol/L potassium phosphate and 5 mmol/L magnesium chloride with pH 7.4±0.1, preheated. • 2. Solution of the test compound: the test compound was dissolved in dimethyl sulfoxide to prepare a stock solution of 10 mmol/L. 8 μL of 10 mmol/L stock solution was transferred to a 96-well plate containing 12 μL of acetonitrile as the highest concentration point, at 3-fold dilution, for 8 concentrations. • 3. […] Human liver microsomal stock solution: human liver microsomes were dissolved in 0.1 mol/L K/Mg buffer to obtain 20 mg/mL stock solution. • 5. Human liver microsomal working solution: 10 μL of 20 mg/mL human liver microsomal stock solution was taken and added into 990 μL of 0.1 mol/L K/Mg buffer to prepare 0.2 mg/mL human liver microsomal solution. • 6.
600 μL of 0.2 mg/mL human liver microsomal solution and 3 μL of stepwise diluted test compound solution were added to the 96-well plate. 30 μL of the above solution was added on the 96-well plate followed by the addition of 15 μL of the corresponding substrate solution. […]

Sequence of hERG potassium channel (Q12809 whole entry): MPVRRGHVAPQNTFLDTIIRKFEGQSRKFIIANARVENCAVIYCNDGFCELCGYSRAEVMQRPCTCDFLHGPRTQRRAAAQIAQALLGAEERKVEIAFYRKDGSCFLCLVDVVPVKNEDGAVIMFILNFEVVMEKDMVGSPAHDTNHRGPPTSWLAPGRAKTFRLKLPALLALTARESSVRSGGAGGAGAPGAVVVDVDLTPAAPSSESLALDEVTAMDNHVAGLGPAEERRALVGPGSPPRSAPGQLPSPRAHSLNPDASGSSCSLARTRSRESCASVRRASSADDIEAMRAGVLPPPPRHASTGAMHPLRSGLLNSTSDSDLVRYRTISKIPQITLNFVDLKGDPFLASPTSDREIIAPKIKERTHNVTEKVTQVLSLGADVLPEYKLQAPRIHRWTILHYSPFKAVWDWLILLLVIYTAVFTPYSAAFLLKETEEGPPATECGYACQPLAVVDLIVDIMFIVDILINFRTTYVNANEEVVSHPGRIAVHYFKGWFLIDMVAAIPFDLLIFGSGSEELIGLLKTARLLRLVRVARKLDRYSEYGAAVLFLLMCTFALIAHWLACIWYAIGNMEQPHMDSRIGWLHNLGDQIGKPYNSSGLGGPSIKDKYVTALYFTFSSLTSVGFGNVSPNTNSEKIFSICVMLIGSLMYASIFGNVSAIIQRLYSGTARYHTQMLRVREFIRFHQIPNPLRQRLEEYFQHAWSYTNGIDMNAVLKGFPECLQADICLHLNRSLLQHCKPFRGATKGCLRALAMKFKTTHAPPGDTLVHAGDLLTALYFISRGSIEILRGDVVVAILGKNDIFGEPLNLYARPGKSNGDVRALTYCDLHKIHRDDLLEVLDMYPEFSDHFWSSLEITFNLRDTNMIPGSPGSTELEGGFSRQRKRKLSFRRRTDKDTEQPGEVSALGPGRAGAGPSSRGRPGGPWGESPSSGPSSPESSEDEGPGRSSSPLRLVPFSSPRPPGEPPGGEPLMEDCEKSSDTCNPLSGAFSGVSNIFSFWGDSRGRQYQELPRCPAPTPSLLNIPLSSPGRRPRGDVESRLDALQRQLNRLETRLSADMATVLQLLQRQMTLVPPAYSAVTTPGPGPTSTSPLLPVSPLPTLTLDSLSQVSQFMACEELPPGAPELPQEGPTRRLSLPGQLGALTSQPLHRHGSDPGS
Source text for hERG potassium channel: hERG Experiment • 1. Test purpose: to test the inhibition of hERG current on HEK293 cells stably transfected with hERG potassium channel by manual membrane clamp; • 2. […] Manual membrane clamp system amplifier was purchased from Molecular Devices (Model No. MultiClamp700B); Manual membrane clamp system digital-to-analog converter was purchased from Molecular Devices (Model No. Axon Digidata1550B); Rapid perfusion system was purchased from ALA Scientific Ins. […] Experimental methods:
The cells were resuspended with culture medium and stored in a centrifuge tube, the supernatant was discarded after centrifugation, then the cells were resuspended with extracellular liquid for later use, and stored at 2-8° C.
The whole-cell membrane clamp technique was applied to record hERG currents. The cell suspension was added into small Petri dishes and placed on an inverted microscope stage. After cells were adhered, they were perfused with extracellular fluid at a recommended flow rate of 1-2 mL/min. The glass microelectrode was drawn in two steps by a micropipette puller, and its resistance value in water was 2-5 MΩ after filling with electrode internal fluid.
After the whole-cell recording mode was established, the clamp potential was maintained at −80 mV. […]
Stimulus release and signal acquisition were performed on PatchMaster software. […] Data was expressed as mean and standard deviation. […]

As for `C=CC(=O)N1CCN(c2nc(=O)n(-c3c(C)ccnc3C(C)C)c3nc(-c4c(O)cccc4F)c(F)cc23)[C@@H](C)C1` [AMG510], the IC50 against hERG potassium channel was more than 30 µM; on CYP1A2, more than 10 µM; at CYP 2C8, more than 10 µM; at CYP 2D6 it was more than 10 µM.

For `C=C(F)C(=O)N1CCN(c2nc(OC[C@@H]3CCCN3C)nc3c2CCN(c2cccc4cccc(Cl)c24)C3)C[C@@H]1CC#N` [MRTX849], the IC50 is 0.99 µM at hERG potassium channel, more than 10 µM against CYP1A2, more than 10 µM at CYP 2C8 and 9.72 µM on CYP 2D6.
